# Measurements published in patent US20190351029A1, “MODULATION OF ISCHEMIC CELL BIOENERGETICS” (East Carolina University, priority 2017, published 2019).
# Counter-ions that a name gives are not always drawn.
# Tested on: endothelial (HUVEC) cells
# Test: AAV-mediated expression of PFKFB3 in endothelial cells
# Format: cell-based, human
# Conditions: HUVEC on Matrigel; PFKFB3 inhibited
# Source text: To begin examining the therapeutic potential of PFKFB3 in PAD, an AAV vector was generated to deliver PFKFB3 cloning the PFKFB3 coding sequence into an AAV2 ITR vector with expression driven by the ubiquitous cytomegalovirus promoter (CMV) promoter. AAV-PFKFB3 or control virus (AAV-DJ-GFP) was delivered to muscle (primary mouse myoblast) and endothelial (HUVEC) cells at a multiplicity of infection (MOI) of 10,000.
row,Compound,effect on enhanced tube formation of AAV-DJ-PFKFB3 treated endothelial cells
1,"O=C(C=Cc1ccc2ccccc2n1)c1ccncc1 [PFK15, 1-(4-pyridinyl)-3-(2-quinolinyl)-2-propen-1-one]",abolished

# Tested on: hypoxic cell growth
# Test: High-throughput hypoxic cell growth assays
# Format: cell-based
# Conditions: not given
# Source text: In some embodiments, the presently disclosed subject matter relates to the discovery that genetically or pharmacologically enhancing glycolytic metabolism is protective against hypoxia/ischemia. Particularly, in accordance with some embodiments of the presently disclosed subject matter, it has been uncovered that elevated expression of the enzyme 6-phosphofructo-2-kinase/fructose-2,6-bisphosphatase 3 (PFKFB3), a potent allosteric activator of glycolysis, prevents ischemic injury and improves cell survival, while small molecular inhibition of PFKFB3 severely exacerbates ischemic injury. Thus, in some embodiments, the genetic target is PFKFB3. […] The compounds include, for example, metform in, phenformin, biperiden hydrochloride, clemastine, meclizine, berberine chloride, vinpocetine, pimozide, and mefloquine.
# Many Food and Drug Administration (FDA) approved drugs and other chemical compounds have off-target effects on cellular metabolism, including the ability to enhance glycolytic metabolism. Cardiomyoblast (H9c2; obtained from ATCC) cells were treated with a number of compounds (berberine, clofoctol, phenformin, metformin, pentamidine, clemastine, pimoxide, bisacodyl, meclizine, mefloquine, papaverine, flunarizine, biperiden, vinpocetine, and niclosamide) at a final concentration of 1 μM prior to experimental hypoxia for 72 hours. […] Human kidney fibroblast cells were also treated with the compound prior to experimental hypoxia. […] In addition, primary mouse cortical neurons were treated with the compounds prior to experimental ischemia.
row,Compound,cell growth/survival in hypoxia
1,OC(CCN1CCCCC1)(c1ccccc1)C1CC2C=CC1C2 (stereo not drawn) [biperiden hydrochloride],improve cell growth/survival in hypoxia
2,COc1ccc2cc3[n+](cc2c1OC)CCc1cc2c(cc1-3)OCO2 [berberine chloride],improve cell growth/survival in hypoxia
3,CN1CCC[C@@H]1CCO[C@](C)(c1ccccc1)c1ccc(Cl)cc1 [clemastine],improve cell growth/survival in hypoxia
4,CCOC(=O)C1=C[C@]2(CC)CCCN3CCc4c(n1c1ccccc41)[C@@H]32 [vinpocetine],improve cell growth/survival in hypoxia
5,OC(c1cc(C(F)(F)F)nc2c(C(F)(F)F)cccc12)C1CCCCN1 (stereo not drawn) [mefloquine],improve cell growth/survival in hypoxia
6,"CN(C)C(=N)N=C(N)N [metform in, metformin]",improve cell growth/survival in hypoxia
7,Cc1cccc(CN2CCN(C(c3ccccc3)c3ccc(Cl)cc3)CC2)c1 (stereo not drawn) [meclizine],improve cell growth/survival in hypoxia
8,[H]/N=C(/N)N/C(=N/[H])NCCc1ccccc1 [phenformin],improve cell growth/survival in hypoxia
